ChEMBL document CHEMBL6182836 (RSC Med Chem, 2025)
Activity calls are given as the source filed them. The rule behind the calls is not given here.

Key:
Acetylcholinesterase [1] = biological target: Acetylcholinesterase (Electrophorus electricus, UniProt O42275); test: Inhibition of electric eel AChE using acetylthiocholine iodide as substrate measured for 30 mins by Ellman's method
[2] = Neurotoxicity in Wistar rat primary cortical neurons assessed as cell viability at 0.001 to 100 uM incubated for 24 hrs by LDH assay; assay type: toxicity, cell-based; details: cortical neurone, dose 0.001-100 µM
[3] = Neurotoxicity in Wistar rat primary cortical neurons assessed as inhibition of cell viability incubated for 24 hrs by LDH assay; assay type: toxicity, cell-based, Cortical neurone; details: for IC50 at 24 h: Wistar, primary cortical neurons; for Activity: cortical neurone, 24 h
Cortical neurone [4] = test: Neuroprotective activity against glutamate-induced excitotoxicity in Wistar rat primary cortical neurons assessed as cell death at 1 uM pretreated with compound for 24 hrs followed by incubation with glutamate for 20 mins by LDH assay relative to control; assay type: functional; details: time 1460 min, 24.33 h
Cortical neurone [5] = test: Neuroprotective activity against glutamate-induced excitotoxicity in Wistar rat primary cortical neurons assessed as cell death at 1 uM pretreated with glutamate followed by compound addition measured after 24 hrs by LDH assay relative to control; assay type: functional
Cholinesterase [6] = biological target: Cholinesterase (Equus caballus, UniProt P81908)
Cholinesterase (Equus caballus, UniProt P81908), sequence (P81908 whole entry): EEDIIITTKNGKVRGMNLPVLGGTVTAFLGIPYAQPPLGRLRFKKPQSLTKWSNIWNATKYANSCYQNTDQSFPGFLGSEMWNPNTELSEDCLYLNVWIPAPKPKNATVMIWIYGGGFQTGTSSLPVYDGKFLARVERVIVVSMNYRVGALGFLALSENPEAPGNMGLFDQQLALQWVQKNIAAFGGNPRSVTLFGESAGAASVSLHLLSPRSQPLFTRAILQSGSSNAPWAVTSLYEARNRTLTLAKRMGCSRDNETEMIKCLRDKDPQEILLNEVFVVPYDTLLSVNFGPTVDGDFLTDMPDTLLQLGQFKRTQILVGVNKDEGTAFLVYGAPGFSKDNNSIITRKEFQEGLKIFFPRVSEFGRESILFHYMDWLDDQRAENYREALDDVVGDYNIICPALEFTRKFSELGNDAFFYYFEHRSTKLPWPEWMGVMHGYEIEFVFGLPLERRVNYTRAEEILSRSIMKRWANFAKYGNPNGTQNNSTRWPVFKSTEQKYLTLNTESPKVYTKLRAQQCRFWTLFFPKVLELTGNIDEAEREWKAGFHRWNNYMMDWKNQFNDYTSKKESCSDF
Description: Inhibition of equine serum BuChE using butyrylthiocholine iodide as substrate measured for 30 mins by Ellman's method

[7] = Neuroprotective activity against glutamate-induced excitotoxicity in Wistar rat hippocampal neurons assessed as increase in intracellular ATP level pretreated with glutamate followed by compound addition measured after 24 hrs by CellTiter-Glo assay (reference value: 70 %); assay type: functional, Hippocampal neuron
[8] = Neuroprotective activity against glutamate-induced excitotoxicity in Wistar rat hippocampal neurons assessed as increase in intracellular ATP level pretreated with compound for 24 hrs followed by incubation with glutamate for 20 mins by CellTiter-Glo assay (reference value: 70 %); assay type: functional, Hippocampal neuron; details: time 1460 min; 24.33 h
[9] = Stability in human plasma assessed as compound remaining at 200 uM incubated for 240 mins by HPLC-UV analysis; assay type: ADME, cell-free; details: read-out: Stability
[10] = Stability in human plasma at pH 7.4 assessed as half life at 200 uM measured up to 240 mins by HPLC-UV analysis; assay type: ADME, cell-free
Astrocyte [11] = test: Neuroprotective activity against glutamate-induced excitotoxicity in Wistar rat astrocytes co-cultured with neurons assessed as protection against cell injury at 10 uM pretreated with compound for 24 hrs followed by incubation with glutamate for 20 mins by fluorescence based analysis; assay type: functional; details: time 1460.0 min
Astrocyte [12] = test: Neuroprotective activity against glutamate-induced excitotoxicity in Wistar rat astrocytes assessed as decrease in LDH release at 10 uM pretreated with glutamate followed by compound addition measured after 24 hrs by spectrophotometric analysis relative to control; assay type: functional; set-up: scale not given: the % may be the effect or the level left
[13] = Stability in human plasma at 200 uM measured after 240 mins by HPLC-UV analysis; assay type: ADME, cell-free; details: 4 h
Astrocyte [14] = test: Neuroprotective activity against glutamate-induced excitotoxicity in Wistar rat astrocytes co-cultured with neurons assessed as prevention of disruption of cytoskeleton at 10 uM pretreated with glutamate followed by compound addition measured after 24 hrs by fluorescence based analysis; assay type: functional, cell-based
Astrocyte [15] = test: Neuroprotective activity against glutamate-induced excitotoxicity in Wistar rat astrocytes co-cultured with neurons assessed as prevention of retraction of dendritic spines at 10 uM pretreated with glutamate followed by compound addition measured after 24 hrs by fluorescence based analysis; assay type: functional, cell-based
Astrocyte [16] = test: Neuroprotective activity against glutamate-induced excitotoxicity in Wistar rat astrocytes co-cultured with neurons assessed as prevention of collapse of dendritic spines at 10 uM pretreated with glutamate followed by compound addition measured after 24 hrs by fluorescence based analysis; assay type: functional, cell-based
[17] = Cytotoxicity against human HepG2 cells assessed as fold decrease in GI50 incubated for 24 hrs by SRB assay relative to tacrine; assay type: toxicity, cell-based; details: read-out: RatioGI50
Astrocyte [18] = test: Neuroprotective activity against glutamate-induced excitotoxicity in Wistar rat astrocytes co-cultured with neurons assessed as decrease in LDH release at 10 uM pretreated with compound for 24 hrs followed by glutamate addition for 20 mins by spectrophotometric analysis relative to control; assay type: functional; set-up: scale not given: the % may be the effect or the level left; details: time 1460 min, 24.33 h
Astrocyte [19] = test: Neuroprotective activity against glutamate-induced excitotoxicity in Wistar rat astrocytes co-cultured with neurons assessed as prevention of disruption of cytoskeleton at 10 uM pretreated with compound for 24 hrs followed by incubation with glutamate for 20 mins by fluorescence based analysis; assay type: functional, cell-based; details: time 1460.0 min
Astrocyte [20] = test: Neuroprotective activity against glutamate-induced excitotoxicity in Wistar rat astrocytes co-cultured with neurons assessed as prevention of retraction of dendritic spines at 10 uM pretreated with compound for 24 hrs followed by incubation with glutamate for 20 mins by fluorescence based analysis; assay type: functional, cell-based; details: time 1460.0 min
Astrocyte [21] = test: Neuroprotective activity against glutamate-induced excitotoxicity in Wistar rat astrocytes co-cultured with neurons assessed as prevention of collapse of dendritic spines at 10 uM pretreated with compound for 24 hrs followed by incubation with glutamate for 20 mins by fluorescence based analysis; assay type: functional, cell-based; details: time 1460.0 min
[22] = Stability in human plasma assessed as compound degradation at 200 uM measured after 240 mins by HPLC-UV analysis; assay type: ADME, cell-free; details: read-out: Drug degradation
HepG2 [23] = details: human, hepg2, 24 h
Description: Cytotoxicity against human HepG2 cells assessed as total growth inhibition incubated for 24 hrs by SRB assay

HepG2 [24] = details: human, hepg2, 24 h; remark: listed apart in the source
Description: Cytotoxicity against human HepG2 cells assessed as cell population mortality incubated for 24 hrs by SRB assay

[25] = mouse, astrocyte, 24 h
Description: Blood-brain barrier transwell (BBB-T) permeability in mouse bEnd.3 cells (luminal side) to C57BL/6 mouse astrocyte (abluminal side) measured after 24 hrs by Transwell assay

in vitro = details: human, HepG2 cells
Description: Cytotoxicity against human HepG2 cells assessed as inhibition of cell growth incubated for 24 hrs by SRB assay

Acetylcholinesterase [26] = biological target: Acetylcholinesterase (Homo sapiens, UniProt P22303); test: Inhibition of AChE (unknown origin)
Acetylcholinesterase (Homo sapiens, UniProt P22303), sequence (P22303 whole entry): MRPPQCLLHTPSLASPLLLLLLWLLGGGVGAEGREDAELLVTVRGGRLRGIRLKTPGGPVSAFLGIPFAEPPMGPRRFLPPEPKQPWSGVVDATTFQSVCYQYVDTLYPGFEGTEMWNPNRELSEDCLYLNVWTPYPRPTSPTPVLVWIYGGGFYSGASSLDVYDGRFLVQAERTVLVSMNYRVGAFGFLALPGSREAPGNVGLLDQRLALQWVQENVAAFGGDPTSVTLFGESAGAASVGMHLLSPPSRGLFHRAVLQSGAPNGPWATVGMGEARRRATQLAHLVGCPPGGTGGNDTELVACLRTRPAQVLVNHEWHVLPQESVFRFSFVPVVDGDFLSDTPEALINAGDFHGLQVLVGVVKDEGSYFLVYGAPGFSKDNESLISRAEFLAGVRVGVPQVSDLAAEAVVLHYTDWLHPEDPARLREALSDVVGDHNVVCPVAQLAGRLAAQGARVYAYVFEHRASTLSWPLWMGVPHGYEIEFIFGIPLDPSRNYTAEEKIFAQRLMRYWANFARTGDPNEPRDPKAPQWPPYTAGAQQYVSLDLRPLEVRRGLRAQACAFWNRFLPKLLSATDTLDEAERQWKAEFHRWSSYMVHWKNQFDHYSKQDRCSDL

Cholinesterase [27] = biological target: Cholinesterase (Homo sapiens, UniProt P06276); test: Inhibition of BChE (unknown origin)
Cholinesterase (Homo sapiens, UniProt P06276), sequence (P06276 whole entry): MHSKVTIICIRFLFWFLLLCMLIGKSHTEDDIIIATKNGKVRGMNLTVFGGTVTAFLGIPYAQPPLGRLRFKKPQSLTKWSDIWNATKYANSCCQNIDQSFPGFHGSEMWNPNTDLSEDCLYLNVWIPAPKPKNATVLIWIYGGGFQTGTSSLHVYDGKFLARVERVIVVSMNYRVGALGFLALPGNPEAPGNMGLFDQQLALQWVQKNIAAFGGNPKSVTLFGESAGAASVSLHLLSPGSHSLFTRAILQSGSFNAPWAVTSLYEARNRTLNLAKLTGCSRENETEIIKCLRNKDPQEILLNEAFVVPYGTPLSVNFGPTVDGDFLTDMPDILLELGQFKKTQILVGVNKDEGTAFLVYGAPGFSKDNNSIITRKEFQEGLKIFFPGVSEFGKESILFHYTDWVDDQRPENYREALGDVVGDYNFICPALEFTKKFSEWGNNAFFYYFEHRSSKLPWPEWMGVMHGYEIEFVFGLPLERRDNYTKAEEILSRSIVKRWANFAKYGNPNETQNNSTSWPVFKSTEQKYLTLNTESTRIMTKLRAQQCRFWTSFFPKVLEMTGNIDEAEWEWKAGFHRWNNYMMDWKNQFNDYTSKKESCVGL

Acetylcholinesterase (Electrophorus electricus, UniProt O42275), sequence (O42275 whole entry): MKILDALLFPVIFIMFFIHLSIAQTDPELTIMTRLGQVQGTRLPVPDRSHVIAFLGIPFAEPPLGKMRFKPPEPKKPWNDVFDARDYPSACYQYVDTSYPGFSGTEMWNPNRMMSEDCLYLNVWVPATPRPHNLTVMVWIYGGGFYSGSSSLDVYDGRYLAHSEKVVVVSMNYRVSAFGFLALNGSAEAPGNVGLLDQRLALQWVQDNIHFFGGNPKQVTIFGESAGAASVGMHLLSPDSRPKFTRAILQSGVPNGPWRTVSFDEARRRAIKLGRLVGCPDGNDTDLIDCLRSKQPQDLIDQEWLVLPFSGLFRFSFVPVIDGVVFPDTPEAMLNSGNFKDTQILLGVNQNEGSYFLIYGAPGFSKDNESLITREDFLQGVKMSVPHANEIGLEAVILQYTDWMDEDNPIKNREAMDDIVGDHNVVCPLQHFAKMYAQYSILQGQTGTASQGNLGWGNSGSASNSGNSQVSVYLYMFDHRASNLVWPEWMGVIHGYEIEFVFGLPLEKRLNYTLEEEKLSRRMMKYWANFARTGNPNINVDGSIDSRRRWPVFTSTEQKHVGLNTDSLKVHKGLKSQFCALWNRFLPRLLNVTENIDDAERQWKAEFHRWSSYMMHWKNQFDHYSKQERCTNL

## COc1ccc(OC)c(C(C#N)N2CCN(CC(=O)Nc3c4c(nc5ccccc35)CCC4)CC2)c1 (racemic)
Acetylcholinesterase [1]
  IC50: Not_active
[2]
  Activity: Non-toxic
[3]
  IC50 at 24 h: 427000 nM
  Activity: Toxic
Cortical neurone [4]
  Activity: 63.52%
Cortical neurone [5]
  Activity: 30.83%
Cholinesterase [6]
  IC50: 1720 nM

## COc1ccc(C(C#N)N2CCN(CC(=O)Nc3c4c(nc5ccccc35)CCC4)CC2)c(OC)c1 (racemic)
Acetylcholinesterase [1]
  IC50: Not_active
[2]
  Activity: Non-toxic
[3]
  IC50 at 24 h: 364000 nM
  Activity: Toxic
Cortical neurone [4]
  Activity: 63.15%
Cortical neurone [5]
  Activity: 44.97%
Cholinesterase [6]
  IC50: 910 nM

## COc1cccc(C(C#N)N2CCN(CC(=O)Nc3c4c(nc5ccccc35)CCC4)CC2)c1OC (racemic)
Acetylcholinesterase [1]; read-out: IC50
  IC50: 440 nM
[2]
  Activity: Non-toxic
[3]
  IC50 at 24 h: 476000 nM
  Activity: Toxic
Cortical neurone [4]
  Activity: 71.05%
Cortical neurone [5]
  Activity: 47.45%
[7]
  Activity: 51.85%
[8]
  Activity: 31.11%
[9]
  remaining at 4 h, 200 µM: 52.4%
[10]
  half-life at 200 µM: 4.8 h
Astrocyte [11]
  Activity: Active
Astrocyte [12]
  Activity: ~52%
[13]
  Stability: Stable
Astrocyte [14]
  Activity: Active
Astrocyte [15]
  Activity: Active
Astrocyte [16]
  Activity: Active
[17]
  selectivity ratio at 24 h: 8
Astrocyte [18]
  Activity: ~33%
Astrocyte [19]
  Activity: Active
Astrocyte [20]
  Activity: Active
Astrocyte [21]
  Activity: Active
[22]
  metabolised at 4 h, 200 µM: ~48%
Cholinesterase [6]
  IC50: 310 nM
HepG2 [23]
  TGI: 188160 nM
HepG2 [24]
  LC50: > 200000 nM
[25]
  permeability: 58%
In vitro
  GI50 at 24 h: 93600 nM

## COc1cc(OC)cc(C(C#N)N2CCN(CC(=O)Nc3c4c(nc5ccccc35)CCC4)CC2)c1 (racemic)
Acetylcholinesterase [1]
  IC50: Not_active
[2]
  Activity: Non-toxic
[3]
  IC50 at 24 h: 298000 nM
  Activity: Toxic
Cortical neurone [4]
  Activity: 62.67%
Cortical neurone [5]
  Activity: 35.59%
Cholinesterase [6]
  IC50: 690 nM

## CC12CC3CC(C)(C1)CC(N)(C3)C2 [MEMANTINE]
[3]
  IC50 at 24 h: 272000 nM
Cortical neurone [4]
  Activity: 36.84%
Cortical neurone [5]
  Activity: 46.61%
[7]
  Activity: 44.44%
[8]
  Activity: 10.37%

## COc1cc2c(cc1OC)CC(CN1CCN(CCCNc3c4c(nc5cc(Cl)ccc35)C[C@H]3C=C(C)C[C@@H]4C3)CC1)C2
Acetylcholinesterase [26]
  IC50: 2.61 nM
Cholinesterase [27]
  IC50: 349 nM

## CN(C)c1ccc(C(C#N)N2CCN(CC(=O)Nc3c4c(nc5ccccc35)CCC4)CC2)cc1 (racemic)
Acetylcholinesterase [1]; read-out: IC50
  IC50: 480 nM
[2]
  Activity: Non-toxic
[3]
  IC50 at 24 h: 218000 nM
  Activity: Toxic
Cortical neurone [4]
  Activity: 34.63%
Cortical neurone [5]
  Activity: 22.03%
Cholinesterase [6]
  IC50: 410 nM

## COc1ccc(C(C#N)N2CCN(CC(=O)Nc3c4c(nc5ccccc35)CCC4)CC2)cc1 (racemic)
Acetylcholinesterase [1]
  IC50: Not_active
[2]
  Activity: Non-toxic
[3]
  IC50 at 24 h: 436000 nM
  Activity: Toxic
Cortical neurone [4]
  Activity: 40.71%
Cortical neurone [5]
  Activity: 28.81%
Cholinesterase [6]
  IC50: 640 nM

## COc1ccc(C(C#N)N2CCN(CC(=O)Nc3c4c(nc5ccccc35)CCC4)CC2)cc1OC (racemic)
Acetylcholinesterase [1]
  IC50: Not_active
[2]
  Activity: Non-toxic
[3]
  IC50 at 24 h: 260000 nM
  Activity: Toxic
Cortical neurone [4]
  Activity: 58.28%
Cortical neurone [5]
  Activity: 38.98%
Cholinesterase [6]
  IC50: 440 nM

## O=C(NCCCNc1c2c(nc3ccccc13)CCC2)c1cnc(Cl)c(Cl)c1
Acetylcholinesterase [26]
  IC50: 52 nM
Cholinesterase [27]
  IC50: 158 nM

## Cc1cc(=O)[nH]c2c1C(=O)C(NCNc1c3c(nc4ccccc14)CCCC3)=CC2=O
Acetylcholinesterase [26]
  IC50: 11.1 nM
Cholinesterase [27]
  IC50: 180 nM
